“Also recorded” adds a separate entry of the source.
Legend:
Wistar rats [1] = experiment: De novo hepatic lipogenesis (stable isotopes); type: in vivo, rat; conditions: rT3 2.5 μg/100 g BW
Text: To confirm this point, the rate of endogenous triglyceride synthesis by using stable isotopes has been assessed.

Wistar rats [2] = experiment: Indirect calorimetry (energy expenditure, respiratory quotient) of Wistar rats; type: in vivo, rat; conditions: for Energy expenditure and respiratory quotient (metabolic activity): 2.5 μg/100 g continuous, 21 days; for Energy expenditure (EE, metabolism): 25 μg/100 g BW
Text: Energy expenditure as well as the nature of substrate oxidized (carbohydrates or lipids) were investigated by indirect calorimetry. This principle is based on the determinations of CO2 release (VCO2) and O2 consumption (VO2) by each animal. It assumes that O2 is entirely involved in substrate oxidation in the respiratory chain (leading to water production) while CO2 release is related to substrate decarboxylation (in the Krebs' cycle). These measurements allow assessing energy expenditure (EE) and respiratory quotient ([…], RQ). EE represent the absolute energy dissipation during rest and activity. RQ is a relative measurement indicating the ratio of carbohydrate versus lipid involved in oxidative pathway. A ratio of 1.0 indicates exclusive carbohydrate oxidation while a ratio of 0.7 indicates exclusive lipid oxidation. Each value between these two extreme values indicates the relative proportion of each substrate (of note protein oxidation was not evaluated). As an example, RQ approaches 0.7 during fasting, indicating lipid oxidation, conversely after feeding RQ increases close to 1 indicating carbohydrate oxidation resulting from food intake and blood insulin rise. Likewise, animals fed high-carbohydrate diets have higher RQs than those fed high-fat diets.
The indirect calorimetry system (Panlab, Barcelona, Spain) consists of cages, pumps, flow controllers, valves, and analyzers. It is computer-controlled in order to sequentially measure O2 and CO2 concentrations as well as air flow in four separate cages allowing four simultaneous determinations. Rats are isolated in one of the four metabolic chambers, and room air is used as a reference to monitor ambient O2 and CO2 concentrations periodically.
At predefined intervals, the computer sends a signal to store differential CO2 and O2 concentrations, flow rate, allowing computing VCO2, VO2, RQ, and EE (Weir equation) with data acquisition hardware (Metabolism, Panlab, Barcelona, Spain).

ZDF rats [3] = experiment: Body weight and food intake of ZDF rats; type: in vivo, rat; conditions: 2.5 μg/100 g BW/day, 21 days
Description: Adult male rat bred in the animal room facilities of Laboratory of Fundamental and Applied Bioenergetics (Wistar strain) or purchased from Charles-River Laboratories, Domaine des oncins, L'ARBRESLE France [(genetically obese normoglycemic (Zucker or Fa/Fa) or diabetic (ZDF)] were caged individually in stainless steel hanging cages and maintained in a 22° C., 50±10% relative humidity and 12 h:12 h light:dark environment. All animals were fed ad libitum with a standard rat chow (Safe A04, Villemoisson, France) and tap water. Body mass and food intake were recorded twice/thrice a week and fresh food was provided at the same time to ensure minimal disturbance to the animals' food behavior.
Then ZDF rats were treated with low doses of rT3 for 21 days (2.5 μg/100 g BW/day) and the glycaemia, insulinaemia were measured after 8, 16 and 21 days.

ZDF rats [4] = experiment: Plasma lipid profiles of ZDF rats; type: in vivo, rat; conditions: 2.5 μg/100 g BW, day of sacrifice
Text: At the end of the experimental period, animals were sacrificed by decapitation, in order to avoid the well-known effects of general anesthetics on mitochondrial metabolism. Blood samples were immediately collected and plasma was frozen for subsequent determination of serum metabolites and hormones. Liver, muscles and fat depots were quickly excised and weighed. Liver median lobe was rapidly freeze-clamped. Muscles (plantaris, soleus and gastrocnemius) were frozen in isopentane precooled in liquid nitrogen. Mesenteric fat consisted of adipose tissue surrounding the gastro-intestinal tract from the gastro-oesophageal sphincter to the end of the rectum with special care taken in distinguishing and removing the pancreas. Retroperitoneal fat pad was taken as the distinct depot behind each kidney along the lumbar muscles. Epididymal fat consisted of adipose tissue on top of the epididymis. For subcutaneous depot measurement, a rectangular piece of skin was taken on the right side of each animal from the median line of the abdomen between the spine and the right hip to the first rib. Interscapular brown adipose tissue was removed and dissected free from adjacent muscles and white adipose tissue. The heart ventricles, the right kidney and the spleen were also excised, weighed and frozen.
Glucose and 3-hydroxybutyrate (3-HB) were measured enzymatically and non esterified fatty acid (NEFA) by colorimetric assay (Wako Chemicals).
Triglycerides and cholesterol were measured by classical routine automate apparatus.
To better understand the lipid metabolism, lipid profiles of free fatty acid (FFA, FIG. 29), triglycerides (FIG. 30), cholesterol (FIG. 31) and high density lipoprotein (HDL, FIG. 32) were analysed.

Wistar rats [5] = experiment: Growth rate (body weight) and food intake of Wistar rats; type: in vivo, rat; conditions: ultra low dose 0.25 μg/100 g BW, vs placebo
Wistar rats [6] = experiment: Wistar rats treated with PTU and IOP (deiodinase inhibition, hypothyroid state) with or without rT3; type: in vivo, rat
Description: Thyroid Stimulating Hormone (TSH) and thyroxine (T4) were measured by radioimmunoassay with rat standards (RPA 554 Amersham bioscience, RIA FT4-immunotech, for TSH and T4 respectively).
In order to understand the mode of action of the treatments, Wistar rats were treated with pharmacological products that inhibit the synthesis and deiodination of thyroid hormones PTU and IOP.
Animals (Wistar) were submitted to a treatment by propyl-thiouracile (PTU in the drinking water) and iopanoic acid (IOP one sc-injection weekly) inducing a complete inhibition of all deiodinases (types I, II and III). Such treatment is responsible for the induction of a severe hypothyroid state. In addition this treatment impairs the peripheral metabolism of all thyroid hormones by deiodination. Some rats were also submitted to a sub-cutaneous administration of rT3 (2.5 μg/100 g). Three groups were constituted: controls, PTU+IOP and PTU+IOP+rT3 and duration of the experiment was 3 weeks.

[7] = test system: nuclear receptors of the thyroid hormones, TRα-1 and TRβ-1; conditions: literature statements; cited from earlier work
[8] = 25 μg/100 g BW pellet, vs placebo
[9] = PTU+IOP alone vs placebo, or rT3 2.5 μg/100 g added to PTU+IOP
[10] = PTU+IOP alone, or rT3 (2.5 μg/100 g) added to PTU+IOP

In the case of `N[C@@H](Cc1ccc(Oc2cc(I)c(O)c(I)c2)c(I)c1)C(=O)O` [rT3, 3′,5′,3-triiodothyronine], the “Endogenous (liver) synthesis of lipids” value (Wistar rats [1]; day and night, effect maximal during the day) is reported as “powerful stimulation”, the “Hepatic lipogenesis, increase” value (Wistar rats [1]; vs placebo) is reported as about 4 fold and the “Energy expenditure and respiratory quotient (metabolic activity)” value (Wistar rats [2]; intra-peritoneal pump) is reported as “increase of the metabolic activity”. The “Energy expenditure and respiratory quotient (metabolic activity)” value (Wistar rats [2]; sub-cutaneous pump) was “increase of the metabolic activity”, the “Respiratory quotient (RQ) during the day (diurnal period)” value (Wistar rats [2]; [8]) was “almost identical to placebo” and the “Respiratory quotient (RQ) during the night” value (Wistar rats [2]; [8]) was “higher”. For the same compound, the “Energy expenditure (EE, metabolism)” value (Wistar rats [2]; daily intra-peritoneal injection) was “do no modify the metabolism”, the “Energy expenditure (EE, metabolism)” value (Wistar rats [2]; daily per os) was “do no modify the metabolism” and the “Energy expenditure (EE, metabolism)” value (Wistar rats [2]; daily sub-cutaneous injection) was “do no modify the metabolism”. For the same compound, the “Energy expenditure (EE, metabolic expenses)” value (Wistar rats [2]; 25 μg/100 g BW/day, continuous subcutaneous pellet, 24 h calorimetry) was “enhanced metabolic expanses”, the “Respiratory quotient (RQ)” value (Wistar rats [2]; 25 μg/100 g BW/day, continuous subcutaneous pellet, after 900 min) was “significant difference from the placebo treated animals” and the “Energy expenditure (EE)” value (Wistar rats [2]; high dose 25 μg/100 g BW) was “significantly enhance”. The “Respiratory quotient (RQ)” value (Wistar rats [2]; high dose 25 μg/100 g BW, vs placebo) was “increase”, the “Respiratory quotient (RQ)” value (Wistar rats [2]; low dose 2.5 μg/100 g BW, vs placebo) was “increase” and the “Respiratory quotient (RQ)” value (Wistar rats [2]; ultra low dose 0.25 μg/100 g BW, vs placebo) was “decrease”. The “Appetite (food intake)” value (ZDF rats [3]) was “not associated with a loose of appetite”, the “Animal mass (body weight)” value (ZDF rats [3]; vs placebo) was “slimmer; also recorded: reduced” and the Cholesterol level (ZDF rats [4]) was “not influenced”. The FFA in blood (ZDF rats [4]) was “significantly enhanced”, the Triglycerides in blood (ZDF rats [4]) was “significantly reduced” and the Body weight (Wistar rats [5]) was “also reduce the body weight”. The “Animal mass (body weight)” value (Wistar rats [6]; 3 weeks, PTU+IOP alone vs controls, or rT3 2.5 μg/100 g sc added to PTU+IOP) was “enhances the decrease induced by PTU-IOP”, the “Appetite (food intake)” value (Wistar rats [6]; 3 weeks, PTU-IOP with or without rT3 2.5 μg/100 g) was “remains unchanged” and the “Energy expenditure (EE)” value (Wistar rats [6]; [9]) was “enhanced”. The “Respiratory quotient (RQ)” value (Wistar rats [6]; [9]) was “enhanced”, the “Activity of mGPdH” value (Wistar rats [6]; [10]) was “stimulates” and the “Brown adipose tissue mass” value (Wistar rats [6]; [10]) was “also enhanced”. For the same compound, the “Mitochondrial state 3 respiratory rate with GM, S and GMS” value (Wistar rats [6]; [10]) was “corrected the effect of PTU+IOP” and the “Binding to the nuclear (TH) receptors” value [7] was “very little affinity”.
